We go through 19 compounds from patent US10287255B2, “Compounds as histone deacetylase 6 inhibitors and pharmaceutical compositions comprising the same” (CHONG KUN DANG PHARMACEUTICAL CORP., priority 2014, dated 2019).

Test [1] concerns the target T1, human recombinant HDAC1 (Homo sapiens, UniProt Q13547).
T1 construct: purchased Enzo Life Science BML-SE456
As to the kind of experiment: HDAC1 enzyme activity inhibition assay (in vitro, fluorimetric). Type of test: biochemical. The note with it: human recombinant HDAC1, fluorimetric kit, 30° C. 60 minutes. How it is done:
(§1) In order to examine the HDAC6 selectivity of the compounds of formula 1 of the present invention by HDAC1 and HDAC6 enzymatic activity inhibition assays, an experiment was performed using a conventional substance as a control.
(§2) HDAC enzyme activity was measured using a HDAC Fluorimetric Drug Discovery Kit (BML-AK511, 516, Enzo Life Science). For the HDAC1 enzyme activity test, human recombinant HDAC1 (BML-SE456) was used as an enzyme source, and Fluor de Lys®-“SIRT1 (BNL-KI177) was used as a substrate. A 5-fold dilution of the compound was seeded into a 96-well plate, and then 0.3 μg of the enzyme and 10 μM of the substrate were added to each well of the plate and allowed to react at 30° C. for 60 minutes. Then, Fluor de Lys® Developer II (BML-KI176) was added thereto and allowed to react for 30 minutes, after which the fluorescence value (Ex 360, Em 460) was measured using a multi-plate reader (Flexstation 3, Molecular Device). The HDAC6 enzyme was tested using human recombinant HDAC6 (382180) (Calbiochem) according to the same protocol as the HDAC1 enzyme activity test method. Based on the resulting values, each IC50 value was calculated using GraphPad Prism4.0 program.

The target in test [2] is T2, human recombinant HDAC6 (Homo sapiens, UniProt Q9UBN7).
T2 construct: purchased Calbiochem 382180
T2 sequence (Q9UBN7 1-1215): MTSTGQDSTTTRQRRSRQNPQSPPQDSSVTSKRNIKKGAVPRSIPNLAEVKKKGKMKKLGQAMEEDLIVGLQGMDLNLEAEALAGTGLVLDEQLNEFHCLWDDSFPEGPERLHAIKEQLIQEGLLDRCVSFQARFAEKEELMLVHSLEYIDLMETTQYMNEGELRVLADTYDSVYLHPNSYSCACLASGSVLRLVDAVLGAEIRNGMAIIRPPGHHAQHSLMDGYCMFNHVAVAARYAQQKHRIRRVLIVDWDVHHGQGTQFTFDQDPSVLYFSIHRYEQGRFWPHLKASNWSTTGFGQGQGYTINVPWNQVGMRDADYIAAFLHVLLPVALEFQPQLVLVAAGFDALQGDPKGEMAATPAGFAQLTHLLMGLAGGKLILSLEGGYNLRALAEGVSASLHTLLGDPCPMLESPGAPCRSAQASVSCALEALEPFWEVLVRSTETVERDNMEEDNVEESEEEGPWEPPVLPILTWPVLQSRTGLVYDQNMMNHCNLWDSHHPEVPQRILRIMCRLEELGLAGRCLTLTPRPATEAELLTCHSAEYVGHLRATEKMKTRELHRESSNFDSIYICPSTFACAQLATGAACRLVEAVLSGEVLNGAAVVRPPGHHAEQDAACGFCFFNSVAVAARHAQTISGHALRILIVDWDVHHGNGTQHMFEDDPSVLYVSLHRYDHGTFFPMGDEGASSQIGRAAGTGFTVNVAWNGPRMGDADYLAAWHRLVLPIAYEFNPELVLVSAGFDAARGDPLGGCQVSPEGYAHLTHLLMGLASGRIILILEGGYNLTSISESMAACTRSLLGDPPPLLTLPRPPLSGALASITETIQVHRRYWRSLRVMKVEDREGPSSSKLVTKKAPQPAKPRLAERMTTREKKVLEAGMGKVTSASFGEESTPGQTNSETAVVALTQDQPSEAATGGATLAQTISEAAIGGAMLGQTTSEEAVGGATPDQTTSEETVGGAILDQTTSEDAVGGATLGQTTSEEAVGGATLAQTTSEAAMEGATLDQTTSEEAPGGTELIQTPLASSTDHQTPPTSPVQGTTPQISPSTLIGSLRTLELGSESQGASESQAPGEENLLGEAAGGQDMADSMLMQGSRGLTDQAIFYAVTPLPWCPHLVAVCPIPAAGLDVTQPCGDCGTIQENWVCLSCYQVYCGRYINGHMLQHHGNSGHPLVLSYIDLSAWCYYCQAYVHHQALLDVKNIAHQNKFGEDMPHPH
As to the kind of experiment: HDAC6 enzyme activity inhibition assay (in vitro, fluorimetric). It counts as biochemical. The following applies: for HDAC6 selectivity (fold): HDAC6 selectivity over HDAC1; for IC50: human recombinant HDAC6, fluorimetric kit, same protocol as HDAC1. How it is done:
as §1, §2

T1 sequence (Q13547 whole entry): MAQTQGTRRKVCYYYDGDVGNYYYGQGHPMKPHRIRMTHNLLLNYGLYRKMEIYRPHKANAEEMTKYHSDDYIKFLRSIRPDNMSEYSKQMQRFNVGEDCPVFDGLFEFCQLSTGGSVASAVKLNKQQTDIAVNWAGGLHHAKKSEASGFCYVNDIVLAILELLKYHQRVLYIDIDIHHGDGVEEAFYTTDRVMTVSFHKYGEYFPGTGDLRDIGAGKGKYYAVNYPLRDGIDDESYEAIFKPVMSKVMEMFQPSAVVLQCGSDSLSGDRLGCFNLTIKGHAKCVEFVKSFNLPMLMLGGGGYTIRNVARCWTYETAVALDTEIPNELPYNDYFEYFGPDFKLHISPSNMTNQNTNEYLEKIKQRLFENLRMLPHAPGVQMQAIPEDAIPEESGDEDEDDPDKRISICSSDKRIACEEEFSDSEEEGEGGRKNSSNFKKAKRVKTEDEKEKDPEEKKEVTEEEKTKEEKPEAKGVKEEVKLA

As to `C[C@@H]1CN(C(=O)Cc2cccc(C3=CCOCC3)c2)C[C@H](C)N1Cc1ccc(C(=O)NO)cc1` [Compound 252, 4-(((2S,6R)-4-(2-(3-(3,6-dihydro-2H-pyran-4-yl)phenyl)acetyl)-2,6-dimethylpiperazin-1-yl)methyl)-N-hydroxybenzamide], the IC50 in test [1] stood at 17500 nM. In test [2], the “HDAC6 selectivity (fold)” value amounted to 79 fold and the half-inhibitory concentration (IC50) was found to be 221 nM.

In the case of `C[C@@H]1CN(C(=O)Nc2cccc(Cl)c2)C[C@H](C)N1Cc1ccc(C(=O)NO)cc1` [Compound 104, (3R,5S)-N-(3-chlorophenyl)-4-(4-(hydroxycarbamoyl)benzyl)-3,5-dimethylpiperazine-1-carboxamide], the IC50 in test [1] was determined as 700 nM. In test [2], the “HDAC6 selectivity (fold)” value turned out to be 9 fold and the IC50 was found to be 82 nM.

`C[C@@H]1CN(Cc2ccc(C(=O)NO)cc2)C[C@H](C)N1Cc1ccccc1-c1ccco1` [Compound 327, 4-(((3R,5S)-4-(2-(furan-2-yl)benzyl)-3,5-dimethylpiperazin-1-yl)methyl)-N-hydroxybenzamide]: in test [1], the IC50 is over 10000 nM. Moreover, in test [2], the “HDAC6 selectivity (fold)” value was over 43 fold and the IC50 stood at 235 nM.

Consider `CCN(CC)Cc1cccc(C(=O)N2C[C@@H](C)N(Cc3ccc(/C=C/C(=O)NO)cc3)[C@@H](C)C2)c1` [Compound 487, (E)-3-(4-(((2S,6R)-4-(3-((diethylamino)methyl)benzoyl)-2,6-dimethylpiperazin-1-yl)methyl)phenyl)-N-hydroxyacrylamide], for which the IC50 in test [1] came out at 1100 nM; in test [2], 296 nM. Moreover, in test [2], the “HDAC6 selectivity (fold)” value is reported as 4 fold.

Regarding `C[C@@H]1CN(Cc2cccc(CN3CCCC3)c2)C[C@H](C)N1Cc1ccc(/C=C/C(=O)NO)cc1` [Compound 475, (E)-3-(4-(((2S,6R)-2,6-dimethyl-4-(3-(pyrrolidin-1-ylmethyl)benzyl)piperazin-1-yl)methyl)phenyl)-N-hydroxyacrylamide], in test [1], the IC50 worked out at 800 nM. In test [2], the “HDAC6 selectivity (fold)” value is on record as 7 fold and the IC50 is 114 nM.

For `C[C@@H]1CN(Cc2ccc(-n3cnnc3)cc2)C[C@H](C)N1Cc1ccc(C(=O)NO)cc1` [Compound 304, 4-(((2S,6R)-4-(4-(4H-1,2,4-triazol-4-yl)benzyl)-2,6-dimethylpiperazin-1-yl)methyl)-N-hydroxybenzamide], in test [1], the IC50 was determined as 2300 nM. Also, in test [2], the “HDAC6 selectivity (fold)” value is 8 fold and the IC50 stood at 280 nM.

Take `C[C@@H]1CN(Cc2ccc(-c3ccco3)cc2)C[C@H](C)N1Cc1ccc(C(=O)NO)cc1` [Compound 303, 4-(((2S,6R)-4-(4-(furan-2-yl)benzyl)-2,6-dimethylpiperazin-1-yl)methyl)-N-hydroxybenzamide]: the IC50 in test [1] is 2900 nM; in test [2] it was 1110 nM. The “HDAC6 selectivity (fold)” value in test [2] is given as 3 fold.

As for `C[C@@H]1CN(Cc2ccc(C(=O)NO)cn2)C[C@H](C)N1Cc1ccccc1` [Compound 194, 6-(((3R,5S)-4-benzyl-3,5-dimethylpiperazin-1-yl)methyl)-N-hydroxynicotinamide], the IC50 in test [1] turned out to be 24800 nM. Besides, in test [2], the “HDAC6 selectivity (fold)” value stood at 303 fold and the IC50 was determined as 82 nM.

For the compound `C[C@@H]1CN(Cc2ccc(C(=O)NO)cc2)C[C@H](C)N1C(=O)c1ccccc1` [Compound 083, 4-(((3R,5S)-4-benzoyl-3,5-dimethylpiperazin-1-yl)methyl)-N-hydroxybenzamide], the IC50 in test [1] amounted to 2000 nM. Also, in test [2], the “HDAC6 selectivity (fold)” value came to 201 fold and the IC50 is 10 nM.

As for `C[C@@H]1CN(C(=O)c2ccccc2C2=CCOCC2)C[C@H](C)N1Cc1ccc(C(=O)NO)cc1` [Compound 278, 4-(((2S,6R)-4-(2-(3,6-dihydro-2H-pyran-4-yl)benzoyl)-2,6-dimethylpiperazin-1-yl)methyl)-N-hydroxybenzamide], in test [1], the half-inhibitory concentration (IC50) was found to be 14400 nM. In addition, in test [2], the “HDAC6 selectivity (fold)” value turned out to be 16 fold and the IC50 was found to be 911 nM.

Take `C[C@@H]1CN(S(=O)(=O)c2cccnc2)C[C@H](C)N1Cc1ccc(C(=O)NO)cc1` [Compound 113, 4-(((2S,6R)-2,6-dimethyl-4-(pyridin-3-ylsulfonyl)piperazin-1-yl)methyl)-N-hydroxybenzamide]: the values for the IC50 in test [1] and in test [2] were 2800 nM and 104 nM, respectively. The “HDAC6 selectivity (fold)” value in test [2] was 27 fold.

In the case of `C[C@@H]1CN(Cc2ccc(C(=O)NO)cc2F)C[C@H](C)N1Cc1ccccc1` [Compound 813, 4-(((3R,5S)-4-benzyl-3,5-dimethylpiperazin-1-yl)methyl)-3-fluoro-N-hydroxybenzamide], the IC50 in test [1] came out at 17200 nM. Moreover, in test [2], the “HDAC6 selectivity (fold)” value is on record as 1720 fold and the 50% inhibitory concentration (IC50) came out at 10 nM.

With `C[C@@H]1CN(C(=O)Nc2cccc(-n3cccc3)c2)C[C@H](C)N1Cc1ccc(C(=O)NO)cc1` [Compound 186, (3R,5S)-N-(3-(1 H-pyrrol-1-yl)phenyl)-4-(4-(hydroxycarbamoyl)benzyl)-3,5-dimethylpiperazine-1-carboxamide], the IC50 in test [1] stood at 300 nM. Further, in test [2], the “HDAC6 selectivity (fold)” value came to 65 fold and the IC50 worked out at 5 nM.

For `C[C@@H]1CN(Cc2ccc(C(=O)NO)cc2)C[C@@H](C)N1Cc1ccccc1` [Compound 248, 4-(((3R,5R)-4-benzyl-3,5-dimethylpiperazin-1-yl)methyl)-N-hydroxybenzamide], the IC50 in test [1] amounted to 8500 nM. In test [2], the “HDAC6 selectivity (fold)” value was found to be 96 fold and the IC50 came out at 89 nM.

`C[C@@H]1CN(Cc2ccc(C(=O)NO)cc2)C[C@H](C)N1Cc1ccc(CN2CCN(Cc3ccccc3)CC2)cc1` [Compound 413, 4-(((3R,5S)-4-(4-((4-benzylpiperazin-1-yl)methyl)benzyl)-3,5-dimethylpiperazin-1-yl)methyl)-N-hydroxybenzamide]: the IC50 in test [1] is over 10000 nM. In test [2], the “HDAC6 selectivity (fold)” value is over 769 fold and the 50% inhibitory concentration (IC50) amounted to 13 nM.

For `C[C@@H]1CN(S(=O)(=O)c2ccc(C(=O)NO)cc2)C[C@H](C)N1Cc1ccccc1` [Compound 818, 4-(((3R,5S)-4-benzyl-3,5-dimethylpiperazin-1-yl)sulfonyl)-N-hydroxybenzamide], in test [1], the IC50 is over 10000 nM. Further, in test [2], the “HDAC6 selectivity (fold)” value is listed as over 11 fold and the IC50 worked out at 870 nM.

As to `C[C@@H]1CN(Cc2ccc(C(=O)NO)cc2)C[C@H](C)N1C(=O)c1ccc(Cl)cc1` [Compound 122, 4-(((3R,5S)-4-(4-chlorobenzoyl)-3,5-dimethylpiperazin-1-yl)methyl)-N-hydroxybenzamide], the IC50 in test [1] was 3600 nM. Besides, in test [2], the “HDAC6 selectivity (fold)” value was 717 fold and the IC50 came to 5 nM.

As for `C[C@@H]1CN(C(=O)c2cccc(Cl)c2)C[C@H](C)N1Cc1ccc(C(=O)NO)cc1` [Compound 107, 4-(((2S,6R)-4-(3-chlorobenzoyl)-2,6-dimethylpiperazin-1-yl)methyl)-N-hydroxybenzamide], the half-maximal inhibitory concentration (IC50) in test [1] worked out at 8300 nM. Moreover, in test [2], the “HDAC6 selectivity (fold)” value amounted to 81 fold and the IC50 turned out to be 103 nM.

On to `C[C@@H]1CN(Cc2ccc(C(=O)NO)cc2)C[C@H](C)N1C(=O)Cc1cccc(F)c1` [Compound 222, 4-(((3R,5S)-4-(2-(3-fluorophenyl)acetyl)-3,5-dimethylpiperazin-1-yl)methyl)-N-hydroxybenzamide], for which the IC50 in test [1] was determined as 1600 nM. Moreover, in test [2], the “HDAC6 selectivity (fold)” value amounted to 16 fold and the IC50 worked out at 100 nM.

The term IC50 denotes the midpoint of a concentration-inhibition curve.
